Test results published in patent US9963462B2 (priority 2015, dated 2018).
pIC50: −log10 of the molar value.

Columns and labels:
[1] = molecular target: SNAP-hSPR (sepiapterin reductase, SPR) (Homo sapiens, UniProt P35270); assay: biochemical; assay type: binding; conditions: terbium labelled SNAP-hSPR / SSZ labelled SNAP-EGFP; read-out: hTR-FRET IC50
[2] = test system: BH4 production in human peripheral blood mononuclear cells (PBMCs); assay: hPBMC assay, inhibition of BH4 production by LC-MS (anti-CD3/anti-CD28 stimulated); assay type: cell-based; conditions: PBMC, read-out: hPBMC IC50
Description: hPBMC Assay: PBMCs were either purchased or isolated from fresh human blood and used either as a fresh preparation or frozen for later use. The assay system was prepared by pre-treating the assay plates overnight with a solution containing anti-human CD3 antibody. Human PBMCs were suspended in assay medium and plated into the assay plates at a density of 1-4×10^5 cells per well. The desired concentration of the test compound was added to each well. A solution of human anti-CD28 antibody was also added to each well. Plates were incubated for 12-48 hours at 37° C. and 5% CO2. Assay plates were centrifuged for 5-15 minutes at 1-3000 RMP and supernatants were removed. The cells were lysed, sealed and used directly or frozen at −80° C. LC-MS was used to quantify the amount of inhibition of BH4 production.
PBMCs were either purchased or isolated from fresh human blood and used either as a fresh preparation or frozen for later use. The assay system was prepared by pre-treating the assay plates overnight with a solution containing anti-human CD3 antibody. Human PBMCs were suspended in assay medium and plated into the assay plates at a density of 1-4×10^5 cells per well. The desired concentration of the test compound was added to each well. A solution of human anti-CD28 antibody was also added to each well. Plates are incubated for 12-48 hours at 37° C. and 5% CO2. Assay plates were centrifuged for 5-15 minutes at 1-3000 RMP and supernatants were removed. The cells were lysed, sealed and used directly or frozen at −80° C.

Chain of SNAP-hSPR (sepiapterin reductase, SPR) (P35270 whole entry): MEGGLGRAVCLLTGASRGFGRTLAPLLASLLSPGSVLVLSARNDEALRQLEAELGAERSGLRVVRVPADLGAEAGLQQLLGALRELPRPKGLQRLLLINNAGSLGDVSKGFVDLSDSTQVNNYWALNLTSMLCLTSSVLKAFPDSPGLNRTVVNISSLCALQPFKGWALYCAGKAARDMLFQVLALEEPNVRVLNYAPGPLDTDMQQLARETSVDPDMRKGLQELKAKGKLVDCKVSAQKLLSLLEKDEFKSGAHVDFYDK

| SMILES | pIC50 [1] | pIC50 [2] |
| --- | --- | --- |
| Cc1c(C(=O)N2CCC2c2ccc(Cl)cc2)cnn1-c1nn2cccc2c(=O)[nH]1 (stereo not shown) [Q-1071] | 8.22 | 7.49 |
| Cc1c(C(=O)N2C3CCC2CN(C2CC2)C3)cnn1-c1nn2cccc2c(=O)[nH]1 [Q-1094] | 9.00 | 7.00 |
| Cc1c(C(=O)N2CCN(S(=O)(=O)c3ccccc3C#N)CC2)cnn1-c1nn2cccc2c(=O)[nH]1 [Q-1847] | 9.00 | 7.19 |
| Cc1c(C(=O)N2CCN(C3CC3)CC2)nnn1-c1nn2cccc2c(=O)[nH]1 [Q-1201] | 9.00 | 7.16 |
| Cc1c(C(=O)N2CCN(S(=O)(=O)c3cccc4nsnc34)CC2)cnn1-c1nn2cccc2c(=O)[nH]1 [Q-1882] | 8.70 | 7.04 |
| O=C(c1cnn(-c2nn3cccc3c(=O)[nH]2)c1)N1CCN2CC(F)(F)C[C@H]2C1 [Q-1246] | 8.40 | 7.00 |
| Cc1c(C(=O)N2CCN(c3nc(-c4ccnc(F)c4)cs3)CC2)cnn1-c1nn2cccc2c(=O)[nH]1 [Q-1196] | 8.52 | 7.28 |
| Cc1c(C(=O)N2CCC3(CCCC3=O)CC2)cnn1-c1nn2cccc2c(=O)[nH]1 [Q-1192] | 9.00 | 7.40 |
| Cc1c(C(=O)N2CCN(C(=O)C3CC3)CC2)cnn1-c1nn2cccc2c(=O)[nH]1 [Q-1213] | 8.52 | 6.05 |
| Cc1c(C(=O)N2CCC(C(=O)N3CCC3)(C(F)(F)F)CC2)cnn1-c1nn2cccc2c(=O)[nH]1 [Q-1085] | 9.00 | 7.20 |
| Cc1c(C(=O)N2CCN(CC(F)(F)F)c3ccccc32)cnn1-c1nn2cccc2c(=O)[nH]1 [Q-1216] | 9.00 | 7.34 |
| Cc1c(C(=O)N2CC3CC(C2)N3CCC(F)(F)F)cnn1-c1nn2cccc2c(=O)[nH]1 [Q-1194] | 8.70 | 7.22 |
| Cc1c(C(=O)N2CCN(CC3CCCO3)CC2)cnn1-c1nn2cccc2c(=O)[nH]1 (stereo not shown) [Q-2016] | 9.00 | 7.35 |
| Cc1c(C(=O)N2CCN(c3ncc(-c4ccccc4F)s3)CC2)cnn1-c1nn2cccc2c(=O)[nH]1 [Q-1230] | 8.00 | 6.74 |
| Cc1c(C(=O)N2CCC(C(=O)N3CCCCC3)(C(F)(F)F)CC2)cnn1-c1nn2cccc2c(=O)[nH]1 [Q-1086] | 9.00 | 7.08 |
| Cc1c(C(=O)N2CCc3nc(-c4cccc(C(F)(F)F)c4)sc3C2)cnn1-c1nn2cccc2c(=O)[nH]1 [Q-1167] | 8.00 | 7.09 |
| Cc1c(C(=O)N2CCN(c3nc(-c4cccc(C#N)c4)cs3)CC2)cnn1-c1nn2cccc2c(=O)[nH]1 [Q-1181] | 8.70 | 7.96 |
| O=C(c1cn(-c2nn3cccc3c(=O)[nH]2)nn1)N1CCN(C2CCC2)CC1 [Q-1244] | 9.00 | 7.44 |
| Cc1c(C(=O)N2CCN(c3ncc(-c4ccc(F)cc4)o3)CC2)cnn1-c1nn2cccc2c(=O)[nH]1 [Q-1202] | 8.30 | 6.59 |
| C=CCC(C#N)(CC=C)C1CCN(C(=O)c2cnn(-c3nn4cccc4c(=O)[nH]3)c2C)CC1 [Q-1110] | 8.70 | 7.37 |
| Cc1c(C(=O)N2CCC(n3ccnc3Cl)CC2)cnn1-c1nn2cccc2c(=O)[nH]1 [Q-1232] | 9.00 | 7.25 |
| Cc1c(C(=O)N2CCN(c3ncc(-c4ccncc4)s3)CC2)cnn1-c1nn2cccc2c(=O)[nH]1 [Q-1235] | 8.30 | 7.74 |

| SMILES | pIC50 [1] | pIC50 [2] |
| --- | --- | --- |
| C=CCC(C#N)C1CCN(C(=O)c2cnn(-c3nc4c(c(=O)[nH]3)CCC4)c2C)CC1 (stereo not shown) [Q-1073] | 8.52 | 7.26 |
| CCC1(C(F)(F)F)CCN(C(=O)c2cnn(-c3nn4cccc4c(=O)[nH]3)c2C)CC1 [Q-1132] | 9.00 | 7.40 |
| Cc1c(C(=O)N2CCN(S(=O)(=O)CCC(F)(F)F)CC2)cnn1-c1nn2cccc2c(=O)[nH]1 [Q-1728] | 9.00 | 7.07 |
| Cc1c(C(=O)N2CCN(S(=O)(=O)c3ccc(C#N)cc3)CC2)cnn1-c1nn2cccc2c(=O)[nH]1 [Q-1838] | 9.00 | 6.77 |
| Cc1c(C(=O)N2C3CC2CN(CC(F)(F)F)C3)cnn1-c1nn2cccc2c(=O)[nH]1 [Q-1083] | 9.00 | 7.17 |
| Cc1c(C(=O)N2CCN(C3CCC3(F)F)CC2)cnn1-c1nn2cccc2c(=O)[nH]1 (stereo not shown) [Q-1120] | 9.00 | 7.01 |
| Cc1c(C(=O)N2CC(N3CCC(F)(F)C3)C2)nnn1-c1nn2cccc2c(=O)[nH]1 [Q-1185] | 9.00 | 6.96 |
| Cc1c(C(=O)N2CCN(c3nc(-c4ccc(C(F)(F)F)cc4)cs3)CC2)cnn1-c1nn2cccc2c(=O)[nH]1 [Q-1139] | 7.70 | 6.38 |
| Cc1c(C(=O)N2CCN(C3CC3F)CC2)cnn1-c1nn2cccc2c(=O)[nH]1 (stereo not shown) [Q-1249] | 8.70 | 7.34 |
| Cc1c(C(=O)N2CCN(S(=O)(=O)c3ccc(Cl)nc3)CC2)cnn1-c1nn2cccc2c(=O)[nH]1 [Q-1862] | 8.70 | 6.60 |
| Cc1c(C(=O)N2CCN(c3ncc(-c4cccc(C#N)c4)o3)CC2)cnn1-c1nn2cccc2c(=O)[nH]1 [Q-1212] | 9.00 | 7.89 |
| Cc1c(C(=O)N2CCN(S(=O)(=O)c3cccc(Cl)c3)CC2)cnn1-c1nn2cccc2c(=O)[nH]1 [Q-1822] | 9.00 | 6.92 |
| Cc1c(C(=O)N2CCC2c2cccc(F)n2)cnn1-c1nn2cccc2c(=O)[nH]1 (stereo not shown) [Q-1217] | 8.52 | 6.57 |
| CCC(C#N)C1=CCN(C(=O)c2cnn(-c3nc4c(c(=O)[nH]3)CCC4)c2C)CC1 (stereo not shown) [Q-1103] | 9.00 | 7.00 |
| Cc1c(C(=O)N2CCN(c3nc(C(F)(F)F)cs3)CC2)cnn1-c1nn2cccc2c(=O)[nH]1 [Q-1134] | 8.52 | 7.60 |
| Cc1c(C(=O)N2CCN(c3ncc(-c4ccc(Cl)cc4)o3)CC2)cnn1-c1nn2cccc2c(=O)[nH]1 [Q-1135] | 8.00 | 7.35 |
| Cc1c(C(=O)N2CCN(S(=O)(=O)c3ccc(F)cc3F)CC2)cnn1-c1nn2cccc2c(=O)[nH]1 [Q-1866] | 8.70 | 7.10 |
| Cc1c(C(=O)N2CCCC(O)(C(F)(F)F)CC2)cnn1-c1nn2cccc2c(=O)[nH]1 (stereo not shown) [Q-1118] | 9.00 | 6.96 |
| Cc1c(C(=O)N2CCN(S(=O)(=O)c3ccccc3)CC2)cnn1-c1nn2cccc2c(=O)[nH]1 [Q-1535] | 9.00 | 6.96 |
| Cc1c(C(=O)N2CCN(S(=O)(=O)c3cccc(F)c3)CC2)cnn1-c1nn2cccc2c(=O)[nH]1 [Q-1823] | 9.00 | 6.96 |
| Cc1c(C(=O)N2CCN(c3ncc(-c4cccc(Cl)c4)o3)CC2)cnn1-c1nn2cccc2c(=O)[nH]1 [Q-1176] | 8.05 | 6.55 |
| Cc1c(C(=O)N2CCC2c2cncc(F)c2)cnn1-c1nn2cccc2c(=O)[nH]1 (stereo not shown) [Q-1269] | 8.30 | 7.28 |

| SMILES | pIC50 [1] | pIC50 [2] |
| --- | --- | --- |
| Cc1nn(-c2nn3cccc3c(=O)[nH]2)cc1C(=O)N1CC2(C1)CC(F)(F)C2 [Q-1239] | 8.70 | 7.57 |
| Cc1c(C(=O)N2CCC(n3ccc(S(=O)(=O)C(F)(F)F)c3)CC2)cnn1-c1nn2cccc2c(=O)[nH]1 [Q-1289] | 8.70 | 7.15 |
| Cc1c(C(=O)N2CCN(c3nc(-c4ccccc4Cl)cs3)CC2)cnn1-c1nn2cccc2c(=O)[nH]1 [Q-1152] | 8.10 | 6.42 |
| Cc1c(C(=O)N2CCC(CCCF)C2)cnn1-c1nn2cccc2c(=O)[nH]1 (stereo not shown) [Q-1098] | 9.00 | 6.68 |
| Cc1c(C(=O)N2CCN(S(=O)(=O)c3c(Cl)cccc3Cl)CC2)cnn1-c1nn2cccc2c(=O)[nH]1 [Q-1836] | 9.00 | 6.57 |
| Cc1c(C(=O)N2CCN(c3nc(-c4ccc(F)nc4)cs3)CC2)cnn1-c1nn2cccc2c(=O)[nH]1 [Q-1180] | 8.70 | 7.33 |
| Cc1c(C(=O)N2CC3(C2)CC(F)(F)C3)cnn1-c1nc2cc[nH]c2c(=O)[nH]1 [Q-1259] | 7.00 | 6.44 |
| Cc1c(C(=O)N2CCN(S(=O)(=O)c3cccc4cccnc34)CC2)cnn1-c1nn2cccc2c(=O)[nH]1 [Q-1859] | 9.00 | 6.80 |
| Cc1c(C(=O)N2CCN(S(=O)(=O)C3CCCCC3)CC2)cnn1-c1nn2cccc2c(=O)[nH]1 [Q-1818] | 9.00 | 7.02 |
| Cc1nn(-c2nn3cccc3c(=O)[nH]2)cc1C(=O)N1CCN(C2CCC2)CC1 [Q-1241] | 8.70 | 7.70 |
| Cc1c(C(=O)N2CC3CC(C2)N3CC(F)(F)F)nnn1-c1nn2cccc2c(=O)[nH]1 [Q-1225] | 9.00 | 7.54 |
| Cc1c(C(=O)N2CCC3(CC2)CC3C(=O)N2CCOCC2)cnn1-c1nn2cccc2c(=O)[nH]1 (stereo not shown) [Q-1070] | 8.70 | 6.70 |
| Cc1c(C(=O)N2CCC(c3ccc(F)cn3)CC2)cnn1-c1nn2cccc2c(=O)[nH]1 [Q-1115] | 9.00 | 7.35 |
| Cc1c(C(=O)N2CCN(c3ncc(-c4ccccc4C(F)(F)F)o3)CC2)cnn1-c1nn2cccc2c(=O)[nH]1 [Q-1171] | 8.00 | 6.85 |
| Cc1c(C(=O)N2CCC(c3nc(-c4ccncc4)cs3)CC2)cnn1-c1nn2cccc2c(=O)[nH]1 [Q-1101] | 9.00 | 7.39 |
| Cc1c(C(=O)N2CCC(c3ccc(Cl)nc3)CC2)cnn1-c1nn2cccc2c(=O)[nH]1 [Q-1116] | 9.00 | 7.12 |
| C=C(c1cnn(C(C)C)c1NC(=O)c1cnn(-c2nn3cccc3c(=O)[nH]2)c1C)C(F)(F)F [Q-1143] | 8.52 | 6.51 |
| Cc1c(C(=O)N2CCC(C3CC3)CC2)nnn1-c1nn2cccc2c(=O)[nH]1 [Q-1184] | 8.70 | 7.43 |
| Cc1c(C(=O)N2CCN(S(=O)(=O)N(C)C)CC2)cnn1-c1nn2cccc2c(=O)[nH]1 [Q-1846] | 9.00 | 6.77 |
| Cc1c(C(=O)N2CCC(C(=O)C3CC3)CC2)cnn1-c1nn2cccc2c(=O)[nH]1 [Q-1208] | 9.00 | 7.21 |
| Cc1c(C(=O)N2CCC(c3nc(C(F)(F)F)cs3)CC2)cnn1-c1nn2cccc2c(=O)[nH]1 [Q-1108] | 9.00 | 7.30 |
